Experimental data from the supplement of paper PMC4862054.

Tested on: MDA-MB-231
Experiment: normalised response (% of control), CellTox Green; higher = less cell death (100 = DMSO, 0 = benzethonium chloride kill control)
Conditions: incubation time: 72 h
Procedure, shortened: (§1)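 Compound was dispensed into 384-well plates at 5 concentrations in 10-fold steps spanning a 10,000-fold range specific to that compound. Breast cancer cell lines were added as 20 µl suspension and left for 72 h before CellTox Green fluorescence (485/520 nm) and then CellTiter-Glo luminescence, read after 10 min at room temperature. Each reported value is the normalised signal at one concentration, with 0.1 % DMSO set at 100 and a positive kill control at 0 on each plate.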

Structure (SMILES)	normalised response
O=C(/C=C/c1cccc(S(=O)(=O)Nc2ccccc2)c1)NO [Belinostat] (1000 nM)	22.3%
O=C(/C=C/c1cccc(S(=O)(=O)Nc2ccccc2)c1)NO [Belinostat] (10000 nM)	-5.71%
O=P1(N(CCCl)CCCl)NCCCO1 (centres undefined) [Cyclophosphamide] (4000 nM)	113%
O=P1(N(CCCl)CCCl)NCCCO1 (centres undefined) [Cyclophosphamide] (40000 nM)	102%
C=C1C[C@@H]2[C@H](CC[C@]3(C)C(=O)CC[C@@H]23)[C@@]2(C)C=CC(=O)C=C12 [Exemestane] (1000 nM)	99.6%
C=C1C[C@@H]2[C@H](CC[C@]3(C)C(=O)CC[C@@H]23)[C@@]2(C)C=CC(=O)C=C12 [Exemestane] (10000 nM)	92.4%
COc1cc2ncnc(Nc3ccc(F)c(Cl)c3)c2cc1OCCCN1CCOCC1 [Gefitinib] (1000 nM)	101%
COc1cc2ncnc(Nc3ccc(F)c(Cl)c3)c2cc1OCCCN1CCOCC1 [Gefitinib] (10000 nM)	68.6%
O=C(Nc1ccncc1)C(=O)c1cn(Cc2ccc(Cl)cc2)c2ccccc12 [Indibulin] (1000 nM)	51.6%
O=C(Nc1ccncc1)C(=O)c1cn(Cc2ccc(Cl)cc2)c2ccccc12 [Indibulin] (10000 nM)	46.3%
NC(=O)c1ccc(I)c([N+](=O)[O-])c1 [Iniparib] (1000 nM)	98.8%
CCc1c2c(nc3ccc(OC(=O)N4CCC(N5CCCCC5)CC4)cc13)-c1cc3c(c(=O)n1C2)COC(=O)[C@]3(O)CC [Irinotecan] (1000 nM)	113%
CCc1c2c(nc3ccc(OC(=O)N4CCC(N5CCCCC5)CC4)cc13)-c1cc3c(c(=O)n1C2)COC(=O)[C@]3(O)CC [Irinotecan] (10000 nM)	106%
Oc1ccc2c(c1)CC[C@H](c1ccccc1)[C@@H]2c1ccc(OCCN2CCCC2)cc1 [Lasofoxifene] (100 nM)	125%
Oc1ccc2c(c1)CC[C@H](c1ccccc1)[C@@H]2c1ccc(OCCN2CCCC2)cc1 [Lasofoxifene] (1000 nM)	119%
Cc1ccc(NC(=O)c2ccc(CN3CCN(C)CC3)cc2)cc1Nc1nc(-c2cccnc2)cs1 [Masitinib] (1000 nM)	114%
Cc1ccc(NC(=O)c2ccc(CN3CCN(C)CC3)cc2)cc1Nc1nc(-c2cccnc2)cs1 [Masitinib] (10000 nM)	-12.8%
O=C(Nc1cccnc1)N1CCC(Cc2cccc(Oc3ccc(C(F)(F)F)cn3)c2)CC1 [PF-3845] (1000 nM)	116%
COCC1(CO)C(=O)C2CCN1CC2 (centres undefined) [Prima-1 Met] (10000 nM)	123%
CNC(=O)c1cc(Oc2ccc(NC(=O)Nc3ccc(Cl)c(C(F)(F)F)c3)c(F)c2)ccn1 [Regorafenib] (1000 nM)	115%
c1ccc2c(CCNc3ccc(Nc4ccncc4)cc3)c[nH]c2c1 [Serdemetan] (1000 nM)	93.9%
CN(C)CCOc1ccc(/C(=C(/CCCl)c2ccccc2)c2ccccc2)cc1 [Toremifene] (10000 nM)	47.6%

Tested on: HDQ-P1
Experiment: as above
Conditions: incubation time: 72 h
Procedure, shortened: as §1

Structure (SMILES)	normalised response
N#Cc1ccc(COC[C@H]2O[C@@H](n3c(NCc4ccc(Cl)c(Cl)c4)nc4c(N)ncnc43)[C@H](O)[C@@H]2O)cc1 (1000 nM)	106%
N#Cc1ccc(COC[C@H]2O[C@@H](n3c(NCc4ccc(Cl)c(Cl)c4)nc4c(N)ncnc43)[C@H](O)[C@@H]2O)cc1 (10000 nM)	110%
COc1cc(OC2CCN(C)CC2)ccc1Nc1ncc2c(n1)n(C1CCCC1)c(=O)n2C [AZ 3146] (1000 nM)	99.6%
COc1cc(OC2CCN(C)CC2)ccc1Nc1ncc2c(n1)n(C1CCCC1)c(=O)n2C [AZ 3146] (10000 nM)	86.1%
CN(C)c1nc(N(C)C)nc(N(C)C)n1 [Altretamine] (1000 nM)	69.2%
CN(C)c1nc(N(C)C)nc(N(C)C)n1 [Altretamine] (10000 nM)	94.3%
O=C(/C=C/c1cccc(S(=O)(=O)Nc2ccccc2)c1)NO [Belinostat] (1000 nM)	103%
O=C(/C=C/c1cccc(S(=O)(=O)Nc2ccccc2)c1)NO [Belinostat] (10000 nM)	76.1%
O=P1(N(CCCl)CCCl)NCCCO1 (centres undefined) [Cyclophosphamide] (4000 nM)	112%
O=P1(N(CCCl)CCCl)NCCCO1 (centres undefined) [Cyclophosphamide] (40000 nM)	107%
C=C1C[C@@H]2[C@H](CC[C@]3(C)C(=O)CC[C@@H]23)[C@@]2(C)C=CC(=O)C=C12 [Exemestane] (1000 nM)	116%
COc1cc2ncnc(Nc3ccc(F)c(Cl)c3)c2cc1OCCCN1CCOCC1 [Gefitinib] (1000 nM)	84.8%
COc1cc2ncnc(Nc3ccc(F)c(Cl)c3)c2cc1OCCCN1CCOCC1 [Gefitinib] (10000 nM)	94.9%
O=C(Nc1ccncc1)C(=O)c1cn(Cc2ccc(Cl)cc2)c2ccccc12 [Indibulin] (1000 nM)	107%
O=C(Nc1ccncc1)C(=O)c1cn(Cc2ccc(Cl)cc2)c2ccccc12 [Indibulin] (10000 nM)	69.6%
NC(=O)c1ccc(I)c([N+](=O)[O-])c1 [Iniparib] (1000 nM)	103%
CCc1c2c(nc3ccc(OC(=O)N4CCC(N5CCCCC5)CC4)cc13)-c1cc3c(c(=O)n1C2)COC(=O)[C@]3(O)CC [Irinotecan] (1000 nM)	93.7%
CCc1c2c(nc3ccc(OC(=O)N4CCC(N5CCCCC5)CC4)cc13)-c1cc3c(c(=O)n1C2)COC(=O)[C@]3(O)CC [Irinotecan] (10000 nM)	74.4%
Oc1ccc2c(c1)CC[C@H](c1ccccc1)[C@@H]2c1ccc(OCCN2CCCC2)cc1 [Lasofoxifene] (100 nM)	66%
Oc1ccc2c(c1)CC[C@H](c1ccccc1)[C@@H]2c1ccc(OCCN2CCCC2)cc1 [Lasofoxifene] (1000 nM)	86.1%
Cc1ccc(NC(=O)c2ccc(CN3CCN(C)CC3)cc2)cc1Nc1nc(-c2cccnc2)cs1 [Masitinib] (1000 nM)	89.1%
Cc1ccc(NC(=O)c2ccc(CN3CCN(C)CC3)cc2)cc1Nc1nc(-c2cccnc2)cs1 [Masitinib] (10000 nM)	106%
O=C(Nc1cccnc1)N1CCC(Cc2cccc(Oc3ccc(C(F)(F)F)cn3)c2)CC1 [PF-3845] (1000 nM)	70.8%
COCC1(CO)C(=O)C2CCN1CC2 (centres undefined) [Prima-1 Met] (10000 nM)	102%
CNC(=O)c1cc(Oc2ccc(NC(=O)Nc3ccc(Cl)c(C(F)(F)F)c3)c(F)c2)ccn1 [Regorafenib] (1000 nM)	97.6%
c1ccc2c(CCNc3ccc(Nc4ccncc4)cc3)c[nH]c2c1 [Serdemetan] (1000 nM)	99.7%
CN(C)CCOc1ccc(/C(=C(/CCCl)c2ccccc2)c2ccccc2)cc1 [Toremifene] (10000 nM)	103%

Tested on: HCC1599
Experiment: as above
Conditions: incubation time: 72 h
Procedure, shortened: as §1

Structure (SMILES)	normalised response
N#Cc1ccc(COC[C@H]2O[C@@H](n3c(NCc4ccc(Cl)c(Cl)c4)nc4c(N)ncnc43)[C@H](O)[C@@H]2O)cc1 (1000 nM)	102%
N#Cc1ccc(COC[C@H]2O[C@@H](n3c(NCc4ccc(Cl)c(Cl)c4)nc4c(N)ncnc43)[C@H](O)[C@@H]2O)cc1 (10000 nM)	109%
COc1cc(OC2CCN(C)CC2)ccc1Nc1ncc2c(n1)n(C1CCCC1)c(=O)n2C [AZ 3146] (1000 nM)	92.5%
COc1cc(OC2CCN(C)CC2)ccc1Nc1ncc2c(n1)n(C1CCCC1)c(=O)n2C [AZ 3146] (10000 nM)	53.3%
CN(C)c1nc(N(C)C)nc(N(C)C)n1 [Altretamine] (1000 nM)	90.7%
CN(C)c1nc(N(C)C)nc(N(C)C)n1 [Altretamine] (10000 nM)	103%
O=C(/C=C/c1cccc(S(=O)(=O)Nc2ccccc2)c1)NO [Belinostat] (1000 nM)	86.1%
O=C(/C=C/c1cccc(S(=O)(=O)Nc2ccccc2)c1)NO [Belinostat] (10000 nM)	93.8%
O=P1(N(CCCl)CCCl)NCCCO1 (centres undefined) [Cyclophosphamide] (4000 nM)	105%
O=P1(N(CCCl)CCCl)NCCCO1 (centres undefined) [Cyclophosphamide] (40000 nM)	107%
C=C1C[C@@H]2[C@H](CC[C@]3(C)C(=O)CC[C@@H]23)[C@@]2(C)C=CC(=O)C=C12 [Exemestane] (1000 nM)	108%
C=C1C[C@@H]2[C@H](CC[C@]3(C)C(=O)CC[C@@H]23)[C@@]2(C)C=CC(=O)C=C12 [Exemestane] (10000 nM)	112%
COc1cc2ncnc(Nc3ccc(F)c(Cl)c3)c2cc1OCCCN1CCOCC1 [Gefitinib] (1000 nM)	97.8%
COc1cc2ncnc(Nc3ccc(F)c(Cl)c3)c2cc1OCCCN1CCOCC1 [Gefitinib] (10000 nM)	96.9%
O=C(Nc1ccncc1)C(=O)c1cn(Cc2ccc(Cl)cc2)c2ccccc12 [Indibulin] (1000 nM)	104%
O=C(Nc1ccncc1)C(=O)c1cn(Cc2ccc(Cl)cc2)c2ccccc12 [Indibulin] (10000 nM)	105%
NC(=O)c1ccc(I)c([N+](=O)[O-])c1 [Iniparib] (1000 nM)	89%
NC(=O)c1ccc(I)c([N+](=O)[O-])c1 [Iniparib] (10000 nM)	100%
CCc1c2c(nc3ccc(OC(=O)N4CCC(N5CCCCC5)CC4)cc13)-c1cc3c(c(=O)n1C2)COC(=O)[C@]3(O)CC [Irinotecan] (1000 nM)	99.1%
CCc1c2c(nc3ccc(OC(=O)N4CCC(N5CCCCC5)CC4)cc13)-c1cc3c(c(=O)n1C2)COC(=O)[C@]3(O)CC [Irinotecan] (10000 nM)	87%
Oc1ccc2c(c1)CC[C@H](c1ccccc1)[C@@H]2c1ccc(OCCN2CCCC2)cc1 [Lasofoxifene] (100 nM)	95.2%
Oc1ccc2c(c1)CC[C@H](c1ccccc1)[C@@H]2c1ccc(OCCN2CCCC2)cc1 [Lasofoxifene] (1000 nM)	111%
Cc1ccc(NC(=O)c2ccc(CN3CCN(C)CC3)cc2)cc1Nc1nc(-c2cccnc2)cs1 [Masitinib] (1000 nM)	101%
Cc1ccc(NC(=O)c2ccc(CN3CCN(C)CC3)cc2)cc1Nc1nc(-c2cccnc2)cs1 [Masitinib] (10000 nM)	67.6%
O=C(Nc1cccnc1)N1CCC(Cc2cccc(Oc3ccc(C(F)(F)F)cn3)c2)CC1 [PF-3845] (1000 nM)	108%
COCC1(CO)C(=O)C2CCN1CC2 (centres undefined) [Prima-1 Met] (10000 nM)	108%
CNC(=O)c1cc(Oc2ccc(NC(=O)Nc3ccc(Cl)c(C(F)(F)F)c3)c(F)c2)ccn1 [Regorafenib] (1000 nM)	103%
c1ccc2c(CCNc3ccc(Nc4ccncc4)cc3)c[nH]c2c1 [Serdemetan] (1000 nM)	89.1%
CN(C)CCOc1ccc(/C(=C(/CCCl)c2ccccc2)c2ccccc2)cc1 [Toremifene] (1000 nM)	95.5%
CN(C)CCOc1ccc(/C(=C(/CCCl)c2ccccc2)c2ccccc2)cc1 [Toremifene] (10000 nM)	80.3%
